This is an account of results in ChEMBL document CHEMBL1201862, “PubChem BioAssay data set” (2004).

Test in all cases: NCI tumour cell line growth inhibition, 48 h
Assay [1] relates to RXF 393.
The subject of assay [2] is HOP-62.
Assay [3] has as its system NCI/ADR-RES.
The test system of assay [4] is T47D.
Assay [5] deals with SW-620.
Assay [6] has as its system SNB-19.
The subject of assay [7] is TK-10.
The test system of assay [8] is OVCAR-8.
Assay [9] deals with OVCAR-4.
The subject of assay [10] is K562.
Assay [11] concerns 786-0.
Assay [12] concerns U-251.
Assay [13] deals with LOX IMVI.
In assay [14] the test system is ACHN.
For assay [15], the system named is MDA-N.
Assay [16] concerns NCI-H522.
Assay [17] deals with NCI-H23.
The subject of assay [18] is BT-549.

The structures appear in SMILES notation.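 Briefly, cells in 96-well plates were exposed to five compound concentrations for 48 h, and endpoints were estimated by linear interpolation. GI50 = concentration required for 50% inhibition of growth.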 The source made the active and inactive calls. Cut-off read from the data, not from the text of the source: active = GI50 up to about 1.1 µM and inactive = higher.

As for `CC(C(O)c1ccccc1)C(O)(C(F)(F)F)C(F)(F)F` (stereo unspecified), the GI50 in assay [1], in assay [2], in assay [3], in assay [4], in assay [5] and in [6] was > 100 µM (inactive) in each case. For the same compound, the GI50 in assay [7], in assay [8], in assay [9], in assay [10], in assay [11] and in [12] was > 100 µM (inactive) throughout. The GI50 in [13], in [14], in assay [15], in assay [16] and in assay [17] was > 100 µM (inactive) in each case.
In the case of `CCN(CC)CCCNc1nc(=O)[nH]c(C)c1C(=O)Nc1cccc2cc3ccccc3cc12`, the GI50 is 78.7 µM (inactive) in [1]; > 100 µM (inactive) in [2]; > 100 µM (inactive) in assay [3]; > 100 µM (inactive) in assay [4]; > 100 µM (inactive) in assay [5]; > 100 µM (inactive) in [6]. Besides, the GI50 in assay [7], in assay [8], in [9], in assay [10], in [11] and in [12] was > 100 µM (inactive) each time. The GI50 in assay [13] was > 100 µM (inactive); in assay [14] it was > 100 µM (inactive); in assay [15] it was > 100 µM (inactive); in assay [16], 85.3 µM (inactive); in assay [17] it was > 100 µM (inactive).
Consider `CC(C)C(N)C(=O)NC(CCC(=O)NCCCCC(N)C(=O)NCCCNc1ccc([N+](=O)[O-])c2[nH]c3ccccc3c(=O)c12)C(N)=O` (stereo unspecified), for which the GI50 in assay [1] was 11 µM (inactive); in assay [2], 92.3 µM (inactive); in [18], 13.7 µM (inactive); in assay [3] it was 43 µM (inactive); in [4], > 100 µM (inactive); in assay [5], 41.6 µM (inactive). For the same compound, the GI50 in assay [6] is 35.2 µM (inactive); in [7], > 100 µM (inactive); in assay [8], 31.2 µM (inactive); in assay [9], 20.6 µM (inactive); in assay [10], > 100 µM (inactive); in assay [11], 35.8 µM (inactive). Besides, the GI50 is 26.7 µM (inactive) in assay [12], 21 µM (inactive) in assay [13], 40.6 µM (inactive) in assay [14] and 88.7 µM (inactive) in assay [17].
With `O=C(C[n+]1ccccc1)N/N=C(\C(=O)NC1=C(Cl)C(=O)c2ccccc2C1=O)c1c(O)c2ccc(O)cc2oc1=O`, the GI50 in [1] is 9.35 µM (inactive); in [2], 10.4 µM (inactive); in assay [18] it was 5.14 µM (inactive); in assay [3], 4.08 µM (inactive); in assay [4], 5.56 µM (inactive); in assay [5], 3.89 µM (inactive). In addition, the GI50 is 23.7 µM (inactive) in assay [7]; 3.66 µM (inactive) in assay [8]; 3.08 µM (inactive) in [9]; 1.91 µM (inactive) in assay [10]; 4.93 µM (inactive) in assay [11]; 5.07 µM (inactive) in assay [12]. Besides, the GI50 was 2.63 µM (inactive) in assay [13], 5.11 µM (inactive) in assay [14], 2.07 µM (inactive) in assay [16] and 2.52 µM (inactive) in assay [17].
On to `COc1c(O)cc(O)c2c(=O)cc(-c3ccccc3)oc12` [WOGONIN], for which the GI50 in [1] is 17.5 µM (inactive); in [2] it was 21.7 µM (inactive); in [18], 55.2 µM (inactive); in [3], 60.5 µM (inactive); in assay [5], 54.1 µM (inactive); in [6], 58.7 µM (inactive). The GI50 in assay [7] was 60.8 µM (inactive); in [8], 52.4 µM (inactive); in assay [9], 77.4 µM (inactive); in assay [10], 25.1 µM (inactive); in assay [11], 51.9 µM (inactive); in assay [12] it was 63.2 µM (inactive). The GI50 in assay [13] is 22.4 µM (inactive); in [14] it was 31.4 µM (inactive); in assay [15], 84.7 µM (inactive); in assay [16], 40.6 µM (inactive); in assay [17], 42.6 µM (inactive).
In the case of `COc1cc2c(cc1OCCCCCCCCN1C(=O)c3cccc4cccc(c34)C1=O)N=C[C@@H]1CCCN1C2=O`, the GI50 was 12.4 µM (inactive) in assay [1]; 42 µM (inactive) in assay [2]; 12.6 µM (inactive) in assay [18]; 3.27 µM (inactive) in assay [3]; 73.6 µM (inactive) in [4]; 18.7 µM (inactive) in assay [5]. The GI50 in [6] was 35.3 µM (inactive); in [7], 29.7 µM (inactive); in [8], 14.9 µM (inactive); in assay [9] it was 0.171 µM (active); in assay [10] it was 3.87 µM (inactive); in [11], 23.6 µM (inactive). Also, the GI50 in assay [12] was 6.62 µM (inactive); in [13], 6.89 µM (inactive); in assay [14], 16 µM (inactive); in assay [16] it was 12 µM (inactive); in [17], 15.1 µM (inactive).
With `COC(=O)c1c2c(cc3c1CC1(Cc4cc5c(c(C)c4C1)CCC5)C3)CCC2` (stereo unspecified), the GI50 is 90.4 µM (inactive) in assay [1]; > 100 µM (inactive) in assay [2]; > 100 µM (inactive) in assay [3]; > 100 µM (inactive) in [4]; > 100 µM (inactive) in assay [5]; > 100 µM (inactive) in assay [6]. The GI50 in [7], in assay [8], in assay [9], in assay [10], in [11] and in assay [12] was > 100 µM (inactive) in each case. Moreover, the GI50 in assay [13], in assay [14], in [15], in assay [16] and in [17] was > 100 µM (inactive) each time.
For `CC1=C[P+](c2ccccc2)(c2ccccc2)c2ccccc2O1`, the GI50 is > 100 µM (inactive) in assay [1]; 11.6 µM (inactive) in assay [2]; 10 µM (inactive) in assay [18]; > 100 µM (inactive) in assay [3]; 0.597 µM (active) in [4]; 5.86 µM (inactive) in assay [5]. Besides, the GI50 was 7.11 µM (inactive) in assay [6]; 14 µM (inactive) in assay [7]; 5.14 µM (inactive) in assay [8]; 3.42 µM (inactive) in assay [9]; 0.524 µM (active) in assay [10]; 25.2 µM (inactive) in assay [11]. Also, the GI50 in [12] is 3.65 µM (inactive); in assay [13], 4.45 µM (inactive); in assay [14], 30.6 µM (inactive); in assay [16], 3.25 µM (inactive); in assay [17] it was 4.07 µM (inactive).
Regarding `OCC(O)C(O)C(O)C(/C=N\Nc1ncnc2ccc(Br)cc12)=N/Nc1ncnc2ccc(Br)cc12` (stereo unspecified), the GI50 in assay [1] is 24.9 µM (inactive); in [2], 7.16 µM (inactive); in assay [4] it was 3.2 µM (inactive); in assay [5], 6.62 µM (inactive); in assay [6] it was 51.5 µM (inactive); in assay [7], 80.5 µM (inactive). Moreover, the GI50 is 4.01 µM (inactive) in assay [8]; 2.94 µM (inactive) in assay [9]; 7.48 µM (inactive) in assay [10]; 5.47 µM (inactive) in assay [11]; 3.34 µM (inactive) in [12]; 5.12 µM (inactive) in assay [13]. The results for the GI50 in assay [14], in assay [15] and in assay [16] were 5.24 µM (inactive), 15.1 µM (inactive) and 0.596 µM (active), respectively.
On to `O=C1OC(c2ccccc2)=N/C1=C/c1cccs1`, for which the GI50 was > 100 µM (inactive) in assay [1]; 48.5 µM (inactive) in [2]; 38.3 µM (inactive) in [3]; > 100 µM (inactive) in [5]; 61.9 µM (inactive) in assay [6]; > 100 µM (inactive) in assay [7]. Moreover, the GI50 in [8] was 63.1 µM (inactive); in [9] it was 41 µM (inactive); in assay [10] it was 30.4 µM (inactive); in assay [12] it was 59.8 µM (inactive); in assay [14], > 100 µM (inactive).
As for `O=C1NCC2(CCNCC2)N1`, the GI50 in [1], in assay [2], in assay [3], in assay [4], in assay [5] and in assay [6] was > 100 µM (inactive) throughout. Further, the GI50 in [7], in [8], in assay [9], in [11], in assay [12] and in [13] was > 100 µM (inactive) each time. In addition, the GI50 in [14] and in assay [17] was > 100 µM (inactive) throughout.
Regarding `CCOC(=O)C1c2[nH]c3ccccc3c2CCN1C(=O)c1ccc(OC)o1` (stereo unspecified), the GI50 in assay [1], in assay [2], in [3], in assay [4], in [5] and in [6] was > 10 µM (inactive) in each case. Also, the GI50 in assay [7], in [8], in assay [9], in [10], in [11] and in [12] was > 10 µM (inactive) throughout. For the same compound, the GI50 in assay [13], in assay [14], in [15], in assay [16] and in assay [17] was > 10 µM (inactive) each time.
